Measured values from US9192601B2, “Methods for enhancing muscle performance and tone” (Salk Institute for Biological Studies, priority 2006, dated 2015).

Assays:
[1] = tested on: primary muscle cells; experiment: Gene expression in wild type and PPARδ null primary muscle cells; format: cell-based, mouse; conditions: wild type vs PPARδ null cells
Protocol: Primary muscle cells were isolated from wild type and PPARδ null mice as previously described (Rando and Blau, J. Cell. Biol. 125(6): 1275-87, 1994). […] RNA expression of UCP3, PDK4, LPL, and HSL was determined using real time quantitative PCR as described in Example 1.
To test this possibility, wild-type and PPARδ null primary muscle cells were used.

[2] = tested on: C57B/6J mice; experiment: Treadmill running endurance test; format: in vivo, mouse
Protocol: Mice were acclimated to moderate treadmill running (10 m/min for 15 min) every other day for 1 week. After acclimation, basal running endurance was determined by placing each mouse on a treadmill, gradually increasing the speed from 0 to 15 m/min, and maintaining 15 m/min until the mouse was exhausted. The time and distance run until exhaustion were recorded as the basal endurance values (Week 0).
Treatments were administered orally.
Expression of biomarkers characteristic of an oxidative phenotype in skeletal muscle, typically, has been correlated with increased oxidative performance (e.g., increased running endurance) of such skeletal muscle. […] Accordingly, to determine the functional effects of ligand, age and weight matched cohorts of treated and control mice were subjected to an endurance treadmill performance test before (week 0) and after (week 5) treatment.
In addition to affecting the contractile apparatus of skeletal muscle, exercise training also increases skeletal muscle mitochondrial density (e.g., Freyssenet et al., Arch. Physiol. Biochem., 104(2): 129-141, 1996). […] Mice in all groups were acclimated to moderate treadmill running and basal running endurance was determined as described in Example 1. Thereafter, mice in the exercise-trained groups received four weeks (5 days/week) of exercise training on a treadmill inclined at 5 degrees. […] At the end of four weeks, all exercise-trained mice were running for 50 min/day at 18 m/min. […] Unless otherwise noted, V, GW, Tr and GW+Tr subjects described in this and the examples below were similarly treated. At the end of the drug treatment and/or training protocol (Week 5) 6 mice per group were subjected to the running test. […] RNA was prepared real time quantitative PCR performed as described in Example 1.
At the end of the drug treatment and/or training protocol (Week 5) 6 mice per group were subjected to the running test.
At the end of the drug treatment and/or training protocol (Week 5), running endurance of six mice per group was determined in the same manner as was basal running endurance. […] on three mice in each group to confirm that changes observed in the skeletal muscle were not due to the acute run, but were related to the exercise training.

[3] = tested on: mitochondrial DNA; experiment: Mitochondrial DNA expression by QPCR; format: in vivo, mouse
Protocol: In addition to its effects on the fiber type, exercise training increased skeletal muscle mitochondrial biogenesis, which can be measured as a function of mitochondrial DNA expression levels using quantitative real time PCR (QPCR). Mitochondrial DNA expression levels were determined in muscles of V, GW, Tr, and GW+Tr subjects using quantitative real time PCR. […] Such an increase is known to contribute to enhanced endurance capacity (e.g., Holloszy, Med. Sci. Sports 7:155-64, 1975). Slow-twitch and fast-twitch muscle fiber types also can be distinguished by myosin isoform expression (Gauthier and Lowey, J. Cell Biol. 81:10-25, 1979; Fitzsimons and Hoh, Biochem. J. 193:229-33, 1981). […] Therefore, at least at the transcriptional level, the PPARδ agonist was capable of inducing some proteins characteristic of a slow-twitch muscle fiber phenotype.

[4] = 4 weeks exercise training + GW1516, Week 5

In the case of Cc1cc(SCc2sc(-c3ccc(C(F)(F)F)cc3)nc2C)ccc1OCC(=O)O [GW1516, (2-methyl-4(((4-methyl-2-(4-trifluoromethylphenyl)-1,3-thiazol-5-yl)methyl)sulfanyl)phenoxy)acetic acid], the “induction of oxidative genes (UCP3, mCPT I, PDK4)” value [1] is reported as “mediated via activation of PPARδ”, the “increase in running distance over vehicle-treated trained mice” value [2, 4] is reported as 70% and the “increase in running time over vehicle-treated trained mice” value [2, 4] is reported as 68%. The “run longer and further than nontreated controls” value ([2]; combined with exercise training) was 60%-75%, the “increment in endurance capacity, week 5 vs week 0” value ([2]; exercise and drug treatment, individual mice) was 100% and the “time spent or distance run on the treadmill prior to exhaustion vs controls” value ([2]; sedentary mice, 5 mg/kg oral once per day, 4 weeks) was “did not significantly differ”. The running endurance ([2]; sedentary mice, long-term treatment up to 5 months) was “did not change”, the “increase in mitochondrial DNA expression” value ([3]; combination of exercise and GW1516) was “approximately 50%” and the “mitochondrial DNA expression” value ([3]; drug alone) was “not changed”.
